Reference: ChEMBL document CHEMBL3785014, “A Binding Site on IL-17A for Inhibitory Macrocycles Revealed by Hydrogen/Deuterium Exchange Mass Spectrometry” (J Med Chem, 2016)
Activity calls are given as the source filed them. No cut-off for these calls is given here.

Experiments:
[1] = target: Interleukin-17A (Homo sapiens) (UniProt Q16552); assay: Binding affinity to recombinant human IL-17A assessed as protection from deuterium uptake at 99 to 103 residues at 10 uM after 10 to 3600 secs by HDX-MS
Chain of Interleukin-17A (Homo sapiens) (Q16552 whole entry, the tested form may be a part): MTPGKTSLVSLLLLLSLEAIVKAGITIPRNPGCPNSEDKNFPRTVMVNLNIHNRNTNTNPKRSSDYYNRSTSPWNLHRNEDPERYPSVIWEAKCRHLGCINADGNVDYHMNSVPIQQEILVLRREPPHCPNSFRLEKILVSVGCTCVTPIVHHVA

[2] = target: Interleukin-17A (Homo sapiens) (UniProt Q16552); assay: Binding affinity to recombinant human IL-17A assessed as protection from deuterium uptake at 58 to 72 residues at 10 uM after 10 to 3600 secs by HDX-MS
[3] = target: Interleukin-17A (Homo sapiens) (UniProt Q16552); assay: Binding affinity to recombinant human IL-17A assessed as protection from deuterium uptake at 92 to 101 residues at 10 uM after 10 to 3600 secs by HDX-MS
[4] = target: Interleukin-17A (Homo sapiens) (UniProt Q16552); assay: Binding affinity to recombinant human IL-17A assessed as protection from deuterium uptake at 58 to 71 residues at 10 uM after 10 to 3600 secs by HDX-MS
[5] = target: Interleukin-17A (Homo sapiens) (UniProt Q16552); assay: Binding affinity to recombinant human IL-17A assessed as increase in deuterium uptake at 102 to 116 residues at 10 uM after 10 to 3600 secs by HDX-MS
[6] = target: Interleukin-17A (Homo sapiens) (UniProt Q16552); assay: Binding affinity to recombinant human IL-17A assessed as increase in deuterium uptake at 100 to 116 residues at 10 uM after 10 to 3600 secs by HDX-MS
[7] = target: Interleukin-17A (Homo sapiens) (UniProt Q16552); assay: Binding affinity to recombinant human IL-17A assessed as protection from deuterium uptake at 92 to 99 residues at 10 uM after 10 to 3600 secs by HDX-MS
[8] = target: Interleukin-17A (Homo sapiens) (UniProt Q16552); assay: Binding affinity to recombinant human IL-17A assessed as increase in deuterium uptake at 102 to 120 residues at 10 uM after 10 to 3600 secs by HDX-MS
[9] = target: Interleukin-17A (Homo sapiens) (UniProt Q16552); assay: Binding affinity to recombinant human IL-17A assessed as protection from deuterium uptake at 90 to 101 residues at 10 uM after 10 to 3600 secs by HDX-MS
[10] = target: Interleukin-17A (Homo sapiens) (UniProt Q16552); assay: Binding affinity to recombinant human IL-17A assessed as increase in deuterium uptake at 104 to 116 residues at 10 uM after 10 to 3600 secs by HDX-MS
[11] = target: Interleukin-17A (Homo sapiens) (UniProt Q16552); assay: Binding affinity to recombinant human IL-17A assessed as increase in deuterium uptake at 103 to 114 residues at 10 uM after 10 to 3600 secs by HDX-MS

| Activity [1] | Activity [2] | Activity [3] | Activity [4] | Activity [5] | Activity [6] | Activity [7] | Activity [8] | Activity [9] | Activity [10] | Activity [11] | SMILES |
| --- | --- | --- | --- | --- | --- | --- | --- | --- | --- | --- | --- |
| Active | Active | Active | Active | Active | Active | Active | Active | Active | Active | Active | O=C1CNC(=O)[C@@H](Cc2ccc(NC(=O)[C@H](Cc3ccccc3Cl)NC(=O)Cc3ccccc3)cc2)NC(=O)CC2(CCCC2)CC(=O)N[C@H](C(=O)O)CCCCN1 |
| Active | Active | Active | Active | Active | Active | Active | Active | Active | Active | Active | O=C1CC2(CCCC2)CC(=O)N[C@H](Cc2ccc(NC(=O)[C@H](Cc3ccccc3Cl)NC(=O)Cc3cccc(O)c3)cc2)C(=O)NCCOCCOCCN1 |
| Active | Active | Active | Active | Active | Active | Active | Active | Active | Active | Active | O=C1CNC(=O)[C@@H](Cc2ccc(NC(=O)[C@H](Cc3ccccc3Cl)NC(=O)Cc3ccccc3)cc2)NC(=O)CC2(CCCC2)CC(=O)NCCCCCN1 |
